Experimental data as given in EP4397674A1, “CASPASE-2 INHIBITOR COMPOUNDS” (Kintsugi Therapeutics S.L., priority 2023, dated 2024).
Several values for one entry are separate records, joined by “and”; a condition that tells them apart may be missing. Identical values can stand only once.

Legend:
Assay type in all cases: biochemical
caspase-3 [1] = target: T1, caspase-3 (Homo sapiens, UniProt P42574); assay: Enzymatic kinetic studies, determination of kobs/I inhibition parameter; conditions: substrate Ac-DEVD-ACC (100uM), 37°C, dot = thousands separator; for kinact/KI: 0.5 h, pH 7.3, pseudo-first-order conditions; for kobs/I: pseudo-first-order conditions
T1 construct: made in house
T1 sequence (P42574 29-175 limits assumed): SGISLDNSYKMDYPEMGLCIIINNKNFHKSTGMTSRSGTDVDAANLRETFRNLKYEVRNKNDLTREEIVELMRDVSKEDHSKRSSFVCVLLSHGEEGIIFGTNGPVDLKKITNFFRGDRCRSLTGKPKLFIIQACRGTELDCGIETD
T1 sequence (P42574 176-277 limits assumed): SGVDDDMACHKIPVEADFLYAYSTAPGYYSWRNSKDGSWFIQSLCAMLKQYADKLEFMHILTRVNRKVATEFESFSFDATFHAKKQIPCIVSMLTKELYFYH
Experimental: (§1) The measurement of kobs/l inhibition parameter (second order rate of enzyme inhibition) of synthesized inhibitors towards caspases-2, -3, and -8 was performed using a fMax spectrofluorimeter (Molecular Devices, Sunnyvale, CA, USA) operating in fluorescence kinetic mode in 96-well Corning (Corning, NY, USA) plates. Before kinetic analysis, all caspases were active site-titrated using the zVAD-fmk inhibitor (Cayman Chemical Company, Cat No. 14467). The caspases assay buffer was 10% w/v sucrose, 1M sodium citrate, 20 mM Pipes, 10 mM NaCl, 1 mM EDTA, and 10 mM DTT (pH = 7.3). Buffers were prepared at room temperature, and all kinetic assays were performed at 37°C. The kobs/l parameter was measured under pseudo-first-order kinetic conditions ([I] » [E]). Inhibitor (20uL) was diluted in a 96-well plate and mixed with the appropriate substrate (20uL); NH-ldc-hGlu-Thr(Bzl)-Ser-Asp-ACC (50uM) for caspase-2, Ac-DEVD-ACC (100uM) for caspase-3 and Ac-LEHD-ACC (100uM) for caspase-8. The ACC fluorescence was monitored using 355 nm (excitation) and 460 nm (emission) wavelengths. The substrate-inhibitor mixture (40uL in total) were pre-incubated at 37C for 15 min. At the same time in a separate tube, the caspase was preincubated in assay buffer at 37C, and after 15 min, the enzyme was added to wells (60uL per well, total reaction volume 100uL) and the fluorescence was monitored for 30min, starting immediately. Second-order rate of inhibition (kobs/l) was determined in at least three independent experiments and presented as an average value. GraphPad Prism 7 software was used for calculations (see figure 2).
(§2) The detailed protocol for the expression and purification of human apoptotic caspases can be found elsewhere (Stennicke, 1999).

caspase-8 [2] = target: T2, caspase-8 (Homo sapiens, UniProt Q14790); assay: as above; conditions: substrate Ac-LEHD-ACC (100uM), 37°C, dot = thousands separator; for kobs/I: pseudo-first-order conditions
T2 construct: made in house
T2 sequence (Q14790 217-374 limits assumed): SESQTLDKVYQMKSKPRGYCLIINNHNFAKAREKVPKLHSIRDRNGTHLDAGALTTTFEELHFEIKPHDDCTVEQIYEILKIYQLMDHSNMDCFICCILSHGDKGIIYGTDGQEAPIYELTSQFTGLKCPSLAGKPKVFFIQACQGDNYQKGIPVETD
T2 sequence (Q14790 385-479 limits assumed): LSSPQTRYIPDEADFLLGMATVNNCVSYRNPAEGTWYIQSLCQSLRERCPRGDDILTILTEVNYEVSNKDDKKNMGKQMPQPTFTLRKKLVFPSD
Experimental: as §1, §2

caspase-2 [3] = target: T3, caspase-2 (Homo sapiens, UniProt P42575); assay: as above; parameters: made in house; conditions: for kobs/I: Caspase-2, pseudo-first-order conditions, substrate NH-ldc-hGlu-Thr(Bzl)-Ser-Asp-ACC (50uM), 37°C, dot = thousands separator
T3 sequence (P42575 170-333 limits assumed): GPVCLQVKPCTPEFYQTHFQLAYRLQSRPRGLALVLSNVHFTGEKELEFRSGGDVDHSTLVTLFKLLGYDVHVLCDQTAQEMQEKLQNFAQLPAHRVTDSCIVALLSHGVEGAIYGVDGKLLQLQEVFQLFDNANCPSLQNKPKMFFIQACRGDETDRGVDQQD
T3 sequence (P42575 348-452 limits assumed): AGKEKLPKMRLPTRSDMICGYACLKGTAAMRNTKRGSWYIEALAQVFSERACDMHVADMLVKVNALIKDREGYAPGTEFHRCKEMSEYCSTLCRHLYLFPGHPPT
Experimental: as §1, §2

caspase-2 [4] = target: T3, caspase-2; assay: Kinetic assay of individual fluorogenic substrates NH-Idc-P4-P3-Dab-Asp-ACC (Example 4); conditions: substrate 10µM, caspase-2 10nM, 37°C; relative to NH-Idc-hGlu-Glu(Chx)-Dab-Asp-ACC
Experimental: Caspase-2 substrates were synthesized according to standard SPPS procedure, purified on HPLC, lyophilized and dissolved in DMSO to the final concentration of 20mM (Poreba et al. 2014, CDD). In particular, the following caspase-2 substrates were synthesized to carry out the present example: [drawing 66] [drawing 67] [drawing 68] [drawing 69] [drawing 70] [drawing 71]
Prior to kinetic assay, substrates (several µL) were diluted in DMSO to the […] (working concentration). Next, 1µL of such substrate was spot into the well of 96-well plate following by the addition of […] of caspase-2 in buffer. Immediately after the enzyme was added, the plate was placed in fluorescence plate reader and the fluorescence was measured over the time in a kinetic mode (excitation 355nm, emission 460nm). The liberation of fluorescence was carried out for 30 minutes, and only linear portion of the plot was taken for analysis to calculate the rate of the reaction. The rate of best cleaved substrate was set to 100% and all other substrates were adjusted accordingly (cleavage rate, %). The final concentration of substrate was 10µM, and the final concentration of caspase-2 was 10nM. The caspase-2 assay buffer was 20mM Pipes, 100mM NaCl, sucrose 10% (w/v), 10mM DTT, pH 7.2-7.4. The caspase-2 was preincubated in buffer at 37°C for 15 min before added to the substrate.

caspase-3 [5] = target: T1, caspase-3; assay: P2 substrates screening, rate of substrate hydrolysis (ACC fluorescence); conditions: substrate 10mM (so in the source), caspase-3 15nM, 37°C, rate per 10nM of caspase
Experimental: (§3) The detailed protocol for the expression and purification of human apoptotic caspases can be found elsewhere (Stennicke, 1999). […] The ACC fluorescence was monitored using 355 nm (excitation) and 460 nm (emission) wavelengths. Before kinetic analysis, all caspases were active site-titrated using the zVAD-fmk inhibitor (Cayman Chemical Company, Cat No. 14467). […] Buffers were prepared at room temperature, and all kinetic assays were performed at 37°C. […] The total volume in a single well was […]. The total assay time was 30 min, but only the linear portion of the fluorescence progress curve was taken for the analysis. The kinetic data were analyzed using Graph Pad Prism software. […]

caspase-8 [6] = target: T2, caspase-8; assay: as above; conditions: substrate 10mM (so in the source), caspase-8 40nM, 37°C, rate per 10nM of caspase
Experimental: as §3

caspase-2 [7] = target: T3, caspase-2; assay: as above; parameters: made in house
Experimental: as §3

Compound | RFU/s, %, average (cleavage rate, best substrate set to 100%) (caspase-2 [4]) | further results
Cc1cccc(C)c1C(=O)OCC(=O)[C@H](CC(=O)O)NC(=O)[C@H](CCN)NC(=O)[C@@H](NC(=O)[C@H](CCCC(=O)O)NC(=O)[C@@H]1Cc2ccccc2N1)[C@@H](C)OCc1ccccc1 [NH-Idc-hGlu-Thr(Bzl)-Dab-Asp-AOMK] | – | kinact/KI (caspase-3 [1]): 443 M⁻¹ s⁻¹; kinact/KI (caspase-8 [2]; 0.5 h, pH 7.3, pseudo-first-order conditions): 415 M⁻¹ s⁻¹; kobs/I (caspase-2 [3]): 342.000 M⁻¹ s⁻¹
Cc1cccc(C)c1C(=O)OCC(=O)[C@H](CC(=O)O)NC(=O)[C@H](CCCCN)NC(=O)[C@@H](NC(=O)[C@H](CCCC(=O)O)NC(=O)[C@@H]1Cc2ccccc2N1)[C@@H](C)OCc1ccccc1 [NH-Idc-hGlu-Thr(Bzl)-Lys-Asp-AOMK] | – | kobs/I (caspase-3 [1]): 2.570 M⁻¹ s⁻¹; kobs/I (caspase-8 [2]): 9.900 M⁻¹ s⁻¹; kobs/I (caspase-2 [3]): 400.000 M⁻¹ s⁻¹
Cc1cccc(C)c1C(=O)OCC(=O)[C@H](CC(=O)O)NC(=O)[C@H](CCCN)NC(=O)[C@@H](NC(=O)[C@H](CCCC(=O)O)NC(=O)[C@@H]1Cc2ccccc2N1)[C@@H](C)OCc1ccccc1 [NH-Idc-hGlu-Thr(Bzl)-Orn-Asp-AOMK] | – | kinact/KI (caspase-3 [1]): 636 M⁻¹ s⁻¹; kobs/I (caspase-8 [2]): 2.300 M⁻¹ s⁻¹; kobs/I (caspase-2 [3]): 390.000 M⁻¹ s⁻¹
Cc1cccc(C)c1C(=O)OCC(=O)[C@H](CC(=O)O)NC(=O)[C@H](CO)NC(=O)[C@@H](NC(=O)[C@H](CCCC(=O)O)NC(=O)[C@@H]1Cc2ccccc2N1)[C@@H](C)OCc1ccccc1 [NH-Idc-hGlu-Thr(Bzl)-Ser-Asp-AOMK, reference compound] | – | kobs/I (caspase-3 [1]): 21.000 M⁻¹ s⁻¹; kobs/I (caspase-8 [2]): 11.600 M⁻¹ s⁻¹; kobs/I (caspase-2 [3]): 665.000 M⁻¹ s⁻¹
NH-Idc-Asp-Abu-Dab-Asp-ACC | 0,0% | –
NH-Idc-Asp-Glu(Chx)-Dab-Asp-ACC | 0,2% | –
NH-Idc-Asp-Glu-Dab-Asp-ACC | 0,2% | –
NH-Idc-Asp-Thr(Bzl)-Dab-Asp-ACC | 0,0% | –
NH-Idc-Asp-Val-Dab-Asp-ACC | 0,3% | –
NH-Idc-Ile-Abu-Dab-Asp-ACC | 0,0% | –
NH-Idc-Ile-Glu(Chx)-Dab-Asp-ACC | 6,3% | –
NH-Idc-Ile-Glu-Dab-Asp-ACC | 0,8% | –
NH-Idc-Ile-Thr(Bzl)-Dab-Asp-ACC | 0,0% | –
NH-Idc-Ile-Val-Dab-Asp-ACC | 0,0% | –
NH-Idc-Leu-Abu-Dab-Asp-ACC | 0,0% | –
NH-Idc-Leu-Glu(Chx)-Dab-Asp-ACC | 6,9% | –

Compound | RFU/s, %, average (cleavage rate, best substrate set to 100%) (caspase-2 [4]) | further results
NH-Idc-Leu-Glu-Dab-Asp-ACC | 0,7% | –
NH-Idc-Leu-Thr(Bzl)-Dab-Asp-ACC | 0,0% | –
NH-Idc-Leu-Val-Dab-Asp-ACC | 0,0% | –
NH-Idc-hGlu-Abu-Dab-Asp-ACC | 26,2% | –
NH-Idc-hGlu-Glu(Chx)-Dab-Asp-ACC | 100,0% and 91,7% | –
NH-Idc-hGlu-Glu(Me)-Dab-Asp-ACC | 76,1% | –
NH-Idc-hGlu-Glu-Dab-Asp-ACC | 75,2% and 72,5% | –
NH-Idc-hGlu-Thr(Bzl)-Dab-Asp-ACC | 5,9% and 4,6% | –
NH-Idc-hGlu-Thr(Bzl)-Dap-Asp-AOMK | – | kobs/I (caspase-3 [1]): 8.300 M⁻¹ s⁻¹; kobs/I (caspase-8 [2]): 5.300 M⁻¹ s⁻¹; kobs/I (caspase-2 [3]): 372.000 M⁻¹ s⁻¹; SELECTIVITY Caspase2 vs.Caspase3, C2/C3 kobs/I (caspase-2 [3]; division of kobs/I values, caspase-2/caspase-3): 44.8; SELECTIVITY Caspase2 vs.Caspase8, C2/C8 kobs/I (caspase-2 [3]; division of kobs/I values, caspase-2/caspase-8): 70.2
NH-Idc-hGlu-Val-Dab-Asp-ACC | 5,6% and 6,5% | –
NH-Idc-hLeu-Abu-Dab-Asp-ACC | 0,0% | –
NH-Idc-hLeu-Glu(Chx)-Dab-Asp-ACC | 0,7% | –
NH-Idc-hLeu-Glu-Dab-Asp-ACC | 0,0% | –
NH-Idc-hLeu-Thr(Bzl)-Dab-Asp-ACC | 0,0% | –
NH-Idc-hLeu-Val-Dab-Asp-ACC | 0,0% | –
NH-ldc-hGlu-Thr(Bzl)-Ser-Asp-ACC | – | rate of substrate hydrolysis, Caspase-3 (caspase-3 [5]): 4,75 RFU/s/10nM; rate of substrate hydrolysis, Caspase-8 (caspase-8 [6]): 6,57 RFU/s/10nM; Casp-2 vs Casp-3 (caspase-2 [7]; ratio of hydrolysis rates caspase-2/caspase-3): 38,49; Casp-2 vs Casp-8 (caspase-2 [7]; ratio of hydrolysis rates caspase-2/caspase-8): 27,82; rate of substrate hydrolysis, Caspase-2 (caspase-2 [7]; substrate 10mM (so in the source), caspase-2 5nM, 37°C, rate per 10nM of caspase): 182,81 RFU/s/10nM
